# Experimental data from patent publication US8618068B2, “Methods and low dose regimens for treating red blood cell disorders” (priority 2009, dated 2013).
# Like-named read-outs stand apart in the source and are kept apart here.
# What was measured:
# [1] = system: γ-globin mRNA; assay: γ-globin mRNA in anemic baboons given HU and DMB; assay type: in vivo; conditions: HU 3 days/week
# [2] = system: reticulocyte counts; assay: Reticulocyte counts in transgenic mice; assay type: in vivo; conditions: 500 mg/kg/day
# Text: Transgenic mice containing the human β globin gene locus in a yeast artificial chromosome (βYAC) displaying the correct developmental regulation of ε-, γ-, and β-globin genes (with a silenced y-globin gene in the adult stage) were used to study the effects of DMB on γ-globin induction and erythroid cell production. In the μLCR-human A γ-globin transgenic mice, the y-globin mRNA expression relative to murine α-globin mRNA was increased by a mean of 1.8-fold above the baseline after treatment with DMB. In the βYAC transgenic mice at intraperitoneal (IP) doses of 500 mg/kg/day, DMB induced a 2-fold increase in human γ-globin mRNA synthesis relative to that of total non-α-globin. This level of induction was similar to that seen with 1,000 mg/kg/day of butyrate, and the changes were observed from 3 days after treatment initiation and persisted until 3 to 5 days after treatment termination.
# Reticulocytosis was observed from day 3 up to day 12 (at the end of sampling).
# [3] = system: fetal hemoglobin (HbF); assay: Phase 2 trial in sickle cell disease patients, HbF, total Hgb, fetal globin mRNA; assay type: in vivo, human
# Protocol: A randomized, blinded dose-ranging Phase 1/2 clinical trial was performed in 24 US and Jamaican adult patients with sickle cell disease (including HbSS or S/β thalassemia). DMB was administered once daily for six week cycles of daily therapy with a 2 week treatment break between two cycles, then followed by a final 4 weeks without treatment. Three dose levels (10, 20, 30 mg/kg/day) were studied sequentially. Four out of 24 subjects were treated with placebo and 21 subjects were evaluable. Seven Patients (5 active/2 placebo) at 10 mg/kg, 6 patients (5 active/1 placebo) at 20 mg/kg, and 9 patients (7 active/1 placebo) at 30 mg/kg were randomized in the study. Patients ranged in age from 14 to 56 with a median age of 31 and were comprised of […]. Patients were followed for hematologic parameters focusing on fetal hemoglobin (HbF). HbF was measured by a Waters Empower 32 HPLC system with a Synchropak CM-300 column.
# [4] = system: micronucleated erythrocytes (PCEs); conditions: rat, in vivo
# Protocol: The potential for DMB to induce formation of micronuclei in vivo was evaluated as part of the initial 14-Day toxicity repeat dose toxicity study in rats administered doses of 0, 200, 600 and 1,000 mg/kg/day for 14 days.
# [5] = Dose range-finding embryo/fetal developmental toxicity in rabbits; assay type: in vivo, New Zealand White rabbits
# Protocol: DMB was administered orally by gavage to 4 groups of 8 time-mated female New Zealand White rabbits once daily from gestation Days 7 through 20 at dosage levels of 50, 150, 300 and 600 mg/kg/day. […] All findings at necropsy occurred sporadically in single females, with similar frequencies in the control group and/or in a non dose-related manner and were considered incidental and unrelated to administration of DMB. Mean fetal weight in the 600 mg/kg/day group was 8.6% lower than the control group. Fetal weights in the 50, 150 and 300 mg/kg/day groups and fetal survival and external morphology at all dosage levels were unaffected by test article administration.
# [6] = Phase 1 repeat-dose clinical study, pharmacokinetics; assay type: in vivo, human; conditions: for AUC(0-t): read-out: AUC0-24
# Protocol: DMB was evaluated in a phase 1, placebo-controlled, randomized, repeat dose clinical study that evaluated tolerability, safety, and pharmacokinetics in healthy volunteers. A total of 41 subjects (31 receiving active drug and 10 receiving placebo) completed 14 consecutive days of study medication at daily dose levels of 5, 10 or 15 mg/kg (10 subjects received placebo). Given the importance of iron in red blood cell production, and the requirement for iron supplementation for induction of HbF with other erythropoietic agents, subjects at all 3 dose levels received oral ferrous gluconate on the study medication days. DMB was administered with food to all but one group (5 mg/kg, cohort 1). Subjects were admitted and observed for 24 hours following initial dosing. Thereafter, the study drug was taken once per day at home, except for the last study day. The subjects were monitored weekly for 6 weeks. Thirty-seven subjects completed the study and 4 subjects dropped out due to conflicts. Safety and PK data are available on these subjects.
# The treatment groups included: Cohort 1: 5 mg/kg fasting, 6 active, 2 placebo; Cohort 2: 5 mg/kg with food, 7 active, 2 placebo (3 drop outs); Cohort 3: 5 mg/kg with food and iron supplements, 6 active, 2 placebo (1 drop out); Cohort 4: 10 mg/kg with food and iron supplements, 6 active, 2 placebo; and Cohort 5: 15 mg/kg with food and iron supplements, 6 active, 2 placebo. Subjects in Cohorts 3, 4, and 5 received a single daily dose of ferrous gluconate (325 mg). The iron supplement was administered to evaluate study medication tolerability when taken with iron. No subjects discontinued due to AEs or safety concerns. Fewer subjects reported an event in the highest dose cohort following eating a meal ([…]) than were reported in the lower dose cohorts ([…], 5 and 10 mg/kg).
# Pharmacokinetic (PK) analyses of individual subject plasma concentration-time data were conducted for Day 0 (first dose) and Day 13 (at steady-state) in the multi-dose study. […] Analysis of PK data has shown that plasma drug levels >20 ug/mL persist for greater than 10 hours at the 10 and 15 mg/kg dose levels.
smiles,measurement,setting,value
"CCC(C)(C)C(=O)[O-].[Na+] [DMB, Sodium 2,2-dimethylbutyrate]",γ-globin mRNA increase above baseline,[1],290%
same,increase in reticulocyte counts,[2],approximately 6.7 fold
same,responding subjects in whom lactate dehydrogenase (LDH) declined,[3]; 30 mg/kg doses,4 of 5
same,dose level with the largest increase in HbF,[3]; Day 97,30 mg/kg
same,dose level with the largest increase in total Hgb,[3]; Day 97,30 mg/kg
same,change in percent HbF at Day 97,"[3]; all 3 DMB dose groups, compared to a decrease in placebo",median increases
same,change in absolute HbF at Day 97,[3]; all three DMB dose groups,Median increases
same,change in total Hgb at Day 97,"[3]; all three DMB dose groups, compared to a decrease in placebo",median increases
same,percentage of F-cells and percentage of fetal hemoglobin,"[3]; in some instances (FIG. 22, 10 mg/kg)",increased throughout the treatment period
same,plasma levels of DMB at which micronucleus activity occurred,"[4]; male, Sprague Dawley",exceeding 500 μg/mL
same,"micronucleated PCEs, mean","[4]; male, Sprague Dawley, 14 days","3.3±0.16 MN PCEs/1,000 PCEs"
same,frequency of micronucleated erythrocytes (PCEs) compared to controls,[4],statistically significant increase
same,increase in micronucleated PCEs in female groups,[4],not observed
same,percent PCEs,[4],no effect
same,potential to cause genotoxicity (weight of evidence),[4],limited potential to cause genotoxicity
same,maternal body weight gains and food consumption,[5]; 300 mg/kg/day,Reduced mean maternal body weight gains and corresponding reduced mean food consumption
same,Mean fetal weight lower than the control group,[5]; 600 mg/kg/day,8.6%
same,acceptability of dosage for a definitive embryo/fetal development study,"[5]; 600 mg/kg/day, maternal and embryo/fetal toxicity",considered unacceptable
same,maternal or fetal test article-related effects,[5]; 50 and 150 mg/kg/day,no maternal or fetal test article-related effects
same,maternal macroscopic findings,[5]; any dosage level,No remarkable maternal macroscopic findings
same,"fetal weights (50, 150, 300 mg/kg/day), fetal survival and external morphology (all dosage levels)","[5]; rabbit, in vivo",unaffected
same,time for which plasma drug levels >20 ug/mL persist,[6]; 10 and 15 mg/kg dose levels,greater than 10 hours
same,time for which targeted plasma drug levels were maintained,[6]; 10 and 15 mg/kg dose levels,more than 10 hours
same,AUC(0-t),"[6]; human, plasma, oral, 5 mg/kg, Day 0, fed, with iron",226 µg·h/mL
same,Cmax,"[6]; human, plasma, oral, 5 mg/kg, Day 0, fed, with iron, read-out: mean plasma Cmax",16300 ng/mL
same,AUC(0-t),"[6]; human, plasma, oral, 5 mg/kg, Day 0, without iron",241 µg·h/mL
same,Cmax,"[6]; human, plasma, oral, 5 mg/kg, Day 0, without iron, read-out: Average Cmax",17700 ng/mL
same,Cmax,"[6]; human, plasma, oral, 5 mg/kg, Day 13, fed, with iron, read-out: Cmax",24800 ng/mL
same,AUC,"[6]; human, plasma, oral, 5 mg/kg, Day 13, with iron",360 µg·h/mL
same,AUC,"[6]; human, plasma, oral, 5 mg/kg, Day 13, without iron",312 µg·h/mL
same,Cmax,"[6]; human, plasma, oral, 5 mg/kg, Day 13, without iron, read-out: Average Cmax",22400 ng/mL
same,AUC(0-t),"[6]; human, plasma, oral, 10 mg/kg, Day 0, fed",441 µg·h/mL
same,Cmax,"[6]; human, plasma, oral, 10 mg/kg, Day 0, fed, read-out: mean plasma Cmax",30600 ng/mL
same,AUC,"[6]; human, plasma, oral, 10 mg/kg, Day 13",538 µg·h/mL
same,Cmax,"[6]; human, plasma, oral, 10 mg/kg, Day 13, read-out: Cmax",35700 ng/mL
same,AUC(0-t),"[6]; human, plasma, oral, 15 mg/kg, Day 0, fed",697 µg·h/mL
same,Cmax,"[6]; human, plasma, oral, 15 mg/kg, Day 0, fed, read-out: mean plasma Cmax",48300 ng/mL
same,AUC,"[6]; human, plasma, oral, 15 mg/kg, Day 13",958 µg·h/mL
same,Cmax,"[6]; human, plasma, oral, 15 mg/kg, Day 13, read-out: Cmax",67600 ng/mL
same,Tmax,"[6]; human, plasma, oral, all dose levels, both days, dosing with food",2.5 to 4.4 h
same,half-life,"[6]; human, plasma, oral, doses of 10 and 15 mg/kg, read-out: mean T1/2 (converted)",660 min
